Reference: patent US8293258B2, “Pesticide treatments made from hop extracts” (John I. Hass, Inc., priority 2000, dated 2012)

Tests used:
[1] = tested on: predator mites Galendromus occidentalis and Neoseiulus fallacis; settings: in vivo
Excerpt: Final concentrations of each component of the tank mix are: one-half percent liquid soap, one percent crop oil and one percent beta acids.
This mixture was applied to hop plants using a Windmill 400 gallon airblast sprayer. The mixture was applied to a one-acre test plot at the rate of 20 gallons per acre and to another one-acre plot at the rate of 100 gallons per acre. A total of five applications were made during the growing season. The first was made June 9th and the final on August 1st. Counts of live spider mites were made periodically during the season to monitor the effect of the product on the number of live mites. Simultaneously, the beneficial predator mites Galendromus occidentalis and Neoseiulus fallacis were counted to determine the effect of the product on these predator mites since these predator mites are useful in helping to reduce the numbers of twospotted spider mites.

[2] = tested on: Erysiphe (=Uncinula) necator; experiment: Grapevine powdery mildew control test (experimental vineyard); assay type: in vivo; settings: standard control fungicide, concentration not given; percent of grape clusters that showed disease
Experimental: The grapevine powdery mildew organism is the fungus Erysiphe (=Uncinula) necator and the host plant is wine grape plant Vitis vinifera. Tests were conducted in an experimental vineyard near Pasco, Wash. Treatments were applied using an airblast sprayer at a volume of 100 gallons per acre. Disease inoculum was natural and had been the heaviest it has been in at least seven years. Plot size was five grape plants. Treatments were replicated four times and evaluations were made on September 4th. […] Percent severity is the portion of each grape cluster that was covered with symptoms.

Row | Compound | predator numbers [1] | predator numbers, highest reached [1] [per leaf] | Percent Incidence [2] [%]
1 | Beta Acids | quite high | ≤ 12 | –
2 | OC(c1ccc(Cl)cc1)(c1cncnc1)c1ccccc1Cl (stereo not drawn) [Standard Control, Fenarimol] | – | – | 71
